One test addresses T1, KDM5B (PLU-1) (Homo sapiens, UniProt Q9UGL1).
T1 sequence (Q9UGL1 1-809): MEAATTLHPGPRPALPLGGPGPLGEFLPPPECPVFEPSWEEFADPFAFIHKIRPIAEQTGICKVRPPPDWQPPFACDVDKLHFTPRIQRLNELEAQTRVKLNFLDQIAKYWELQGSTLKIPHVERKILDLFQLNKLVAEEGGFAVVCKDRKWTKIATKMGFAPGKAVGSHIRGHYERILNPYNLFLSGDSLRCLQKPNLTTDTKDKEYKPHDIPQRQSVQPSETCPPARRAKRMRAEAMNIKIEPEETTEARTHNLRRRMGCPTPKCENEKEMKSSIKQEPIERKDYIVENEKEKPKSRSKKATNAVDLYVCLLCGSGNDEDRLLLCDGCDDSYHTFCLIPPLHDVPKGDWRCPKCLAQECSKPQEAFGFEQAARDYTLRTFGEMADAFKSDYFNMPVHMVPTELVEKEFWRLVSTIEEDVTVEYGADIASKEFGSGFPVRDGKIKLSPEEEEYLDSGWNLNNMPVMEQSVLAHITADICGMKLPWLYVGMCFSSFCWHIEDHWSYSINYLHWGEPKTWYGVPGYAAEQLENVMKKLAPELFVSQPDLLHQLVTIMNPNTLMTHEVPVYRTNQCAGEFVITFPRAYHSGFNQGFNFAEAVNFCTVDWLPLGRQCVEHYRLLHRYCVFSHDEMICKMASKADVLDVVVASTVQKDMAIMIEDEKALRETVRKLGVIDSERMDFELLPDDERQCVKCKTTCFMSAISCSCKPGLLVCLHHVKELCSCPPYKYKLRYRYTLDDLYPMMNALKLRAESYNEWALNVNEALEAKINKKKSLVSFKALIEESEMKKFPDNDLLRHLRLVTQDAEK
The test can be described thus: Histone lysine demethylase AlphaLISA assay, KDM5B. As to conditions: read-out: KDM5B HDME Inhibition IC50. The class given is biochemical. In outline: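 Each enzyme was pre-incubated 10 min in buffer, then 10 min with compound in 3% DMSO solution. The reaction started with biotinylated histone H3 peptide substrate plus 25 μM L-ascorbate and 10 μM α-KG at room temperature. Detection used AlphaLISA acceptor beads, then streptavidin donor beads, in the dark.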
(Bead proximity is the source of the signal in Alpha formats.)

The target in a further test is T2, KDM3B (JMJD1B) (Homo sapiens, UniProt Q7LBC6).
T2 construct: 842-1761; host or cells: Bac (baculovirus system)
T2 sequence (Q7LBC6 842-1761): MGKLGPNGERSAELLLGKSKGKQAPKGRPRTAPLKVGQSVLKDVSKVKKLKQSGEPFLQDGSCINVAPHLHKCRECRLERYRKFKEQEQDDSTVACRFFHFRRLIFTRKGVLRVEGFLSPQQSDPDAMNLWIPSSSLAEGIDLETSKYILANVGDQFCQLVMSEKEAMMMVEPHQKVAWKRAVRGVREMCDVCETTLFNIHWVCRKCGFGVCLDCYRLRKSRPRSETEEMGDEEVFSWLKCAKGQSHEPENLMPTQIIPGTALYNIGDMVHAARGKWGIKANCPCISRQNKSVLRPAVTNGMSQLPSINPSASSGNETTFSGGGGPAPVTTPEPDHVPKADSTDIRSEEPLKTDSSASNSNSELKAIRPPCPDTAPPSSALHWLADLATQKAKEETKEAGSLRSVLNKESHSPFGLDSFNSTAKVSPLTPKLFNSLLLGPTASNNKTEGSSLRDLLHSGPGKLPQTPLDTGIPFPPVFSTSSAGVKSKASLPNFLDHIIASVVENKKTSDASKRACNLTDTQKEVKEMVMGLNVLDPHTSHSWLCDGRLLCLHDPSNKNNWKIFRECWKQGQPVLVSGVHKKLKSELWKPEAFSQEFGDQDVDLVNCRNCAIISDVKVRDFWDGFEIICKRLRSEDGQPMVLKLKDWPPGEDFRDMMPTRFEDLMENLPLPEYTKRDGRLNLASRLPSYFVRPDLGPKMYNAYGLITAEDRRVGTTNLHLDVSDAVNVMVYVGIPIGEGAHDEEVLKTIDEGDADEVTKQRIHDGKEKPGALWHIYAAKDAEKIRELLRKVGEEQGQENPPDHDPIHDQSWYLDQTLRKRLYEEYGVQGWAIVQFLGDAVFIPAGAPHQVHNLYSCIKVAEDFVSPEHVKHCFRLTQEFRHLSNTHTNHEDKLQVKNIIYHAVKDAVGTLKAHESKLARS
The test can be described thus: Histone lysine demethylase AlphaLISA assay, KDM3B. The class given is biochemical. As to conditions: read-out: KDM3B HDME Inhibition IC50. The protocol:
Assays are performed analogously to the protocol described by PerkinElmer (Roy et al. PerkinElmer Technical Note: AlphaLISA #12, April 2011)
Enzymes are dissolved in enzyme buffer and incubated for 10 min before being added to 3% DMSO solutions of compounds in enzyme buffer. Incubated for another 10 minutes, before substrate solution is added and the reaction mixture is incubated at room temperature. 10 μL acceptor beads, suspended in Epigenetic Buffer (Perkin Elmer AL008) from stock, are added and the suspension is incubated in the dark at room temperature, before a suspension of streptavidin donor beads (Perkin Elmer 6760002) in Epigenetic Buffer is added. After incubation at room temperature in the dark the plates are read. […]
BK9M2: Biotin-ARTKQTAR(KMe2)STGGKAPRKQ-NH2 (AnaSpec 64359) […]
Substrate Solution: Substrate, 25 μM L-Asc, and 10 μM α-KG in Buffer A.

Structures are written as SMILES.

In the case of `CNCc1ccnc(CNCCCN(C)Cc2ccccc2)c1` [Compound 17, benzyl(methyl){3-[({4-[(methylamino)methyl]-pyridin-2-yl)methyl)-amino]propyl}-amine], the IC50 is less than 250 nM on KDM5B (PLU-1) and greater than 2500 nM at KDM3B (JMJD1B).
The like results for `CN(C)CCNCc1cc(CNC(C#N)C2CC2)ccn1` (stereo not shown) [Compound 21, 2-cyclopropyl-2-({[2-({[2-(dimethylamino)ethyl]-amino}methyl)pyridin-4-yl]methyl}amino)-acetonitrile] were, in that order, greater than 2500 nM and greater than 2500 nM.
For `CC(C#N)NCc1ccnc(CNCCCN(C)C)c1` (stereo not shown) [Compound 22, 2-({[2-({[3-(dimethylamino)propyl]-amino}methyl)pyridin-4-yl]methyl}amino)-propanenitrile] the same measures were 250 to 2500 nM and greater than 2500 nM.
Turning to `N#CCNCc1ccnc(CNCCCCN(Cc2ccccc2)C2CC2)c1` [Compound 23, 2-[({2-[({4-[benzyl(cyclopropyl)-amino]butyl}amino)-methyl]pyridin-4-yl}methyl)amino]-acetonitrile], the IC50 on KDM5B (PLU-1) is 250 to 2500 nM; at KDM3B (JMJD1B) it was greater than 2500 nM.
The like results for `CNC(C#N)c1ccnc(CNCCCN(C)C)c1` (stereo not shown) [Compound 24, 2-[2-({[3-(dimethylamino)propyl]-amino}methyl)pyridin-4-yl]-2-(methylamino)-acetonitrile] were, in that order, less than 250 nM and greater than 2500 nM.
For `CCN(CCN(C)C)C(=O)CNCc1cc(CNC(=O)C(F)(F)F)ccn1` [Compound 25, N-[(2-{[({[2-(dimethylamino)ethyl]-(ethyl)carbamoyl}-methyl)amino]methyl}-pyrtdin-4-yl)methyl]-2,2,2-trifluoroacetamide] the same measures were 250 to 2500 nM and greater than 2500 nM.
The like results for `CN(C)C(=O)CNCc1cc(/C=N\C2CC2)ccn1` [Compound 33] were, in that order, less than 250 nM and greater than 2500 nM.
For the compound `CN(C)C(=O)CNCc1cc(/C=N/CCCc2ccccc2)ccn1` [Compound 34, N,N-dimethyl-2-[({4-[[(3-phenylpropyl)imino]-methyl]pyridin-2-yl}methyl)amino]-acetamide], the values for the half-maximal inhibitory concentration (IC50) at KDM5B (PLU-1) and on KDM3B (JMJD1B) were less than 250 nM and greater than 2500 nM, respectively.
The like results for `CC1CC1/N=C/c1ccnc(CNCC(=O)N(C)C)c1` (stereo not shown) [Compound 35, N,N-dimethyl-2-[({4-[N-(2-methylcyclopropyl)-carboximidoyl]pyridin-2-yl}methyl)amino]-acetamide] were, in that order, 250 to 2500 nM and greater than 2500 nM.
Consider `CN(C)C(=O)CNCc1cc(/C=N/CCC2CCCCC2)ccn1` [Compound 36, 2-[({4-[[(2-cyclohexylethyl)imino]-methyl]pyridin-2-yl}methyl)amino]-N,N-dimethylacetamide], for which the IC50 is less than 250 nM at KDM5B (PLU-1) and greater than 2500 nM at KDM3B (JMJD1B).
The like results for `CN(C)CCC/N=C/c1ccnc(CNCCCN(C)C)c1` [Compound 37, [3-(dimethylamino)propyl]-({4-[{[3-(dimethylamino)propyl]-imino}methyl]pyridin-2-yl}methyl)amine] were, in that order, less than 250 nM and greater than 2500 nM.
Take `CN(C)CCCNCc1cc(/C=N/CCN(C)C)ccn1` [Compound 38, ({4-[{[2-(dimethylamino)ethyl]-imino}methyl]pyridin-2-yl}methyl)[3-(dimethylamino)-propyl]amine]: the IC50 was less than 250 nM on KDM5B (PLU-1) and greater than 2500 nM on KDM3B (JMJD1B).
For `CCSCCNCc1cc(/C=N/C2CC2)ccn1` [Compound 39, N-{[2-({[2-(ethylsulfanyl)-ethyl]amino}methyl)pyridin-4-yl]methylidene}-cyclopropanamine] the same measures were 250 to 2500 nM and greater than 2500 nM.
The like results for `CN1CCCC1CCNCc1cc(/C=N/C2CC2)ccn1` (stereo not drawn) [Compound 40, N-{[2-({[2-(l-methylpyrrolidin-2-yl)ethyl]amino}methyl)-pyridin-4-yl]methylidene}-cyclopropanamine] were, in that order, less than 250 nM and greater than 2500 nM.
For `CN(CCCNCc1cc(/C=N/C2CC2)ccn1)Cc1ccccc1` [Compound 41, N-({2-[({3-[benzyl(methyl)amino]-propyl}amino)methyl]-pyridin-4-yl}methylidene)-cyclopropanamine] the same measures were less than 250 nM and greater than 2500 nM.
For the compound `C(=N/C1CC1)/c1ccnc(CNCCCN2CCCC2)c1` [Compound 42, N-{[2-({[3-(pyrrolidin-1-yl)propyl]amino}-methyl)pyridin-4-yl]methylidene}-cyclopropanamine], the IC50 at KDM5B (PLU-1) is less than 250 nM; on KDM3B (JMJD1B) it was greater than 2500 nM.
The like results for `CN(C)C/C=C/CNCc1cc(/C=N/C2CC2)ccn1` [Compound 43, N-{[2-({[(2E)-4-(dimethylamino)but-2-en-1-yl]amino}-methyl)pyridin-4-yl]methylidene}-cyclopropanamine] were, in that order, less than 250 nM and greater than 2500 nM.
The like results for `C(=N\C1CC1)/c1ccnc(CNCCCCN2CCC2)c1` [Compound 44, N-{[2-({[4-(azetidin-1-yl)butyl]amino}methyl)-pyridin-4-yl]methylidene}-cyclopropanamine] were, in that order, less than 250 nM and greater than 2500 nM.
On to `CN(C)CCCCNCc1cc(/C=N\C2CC2)ccn1` [Compound 45, N-{[2-({[4-(dimethylamino)butyl]-amino}methyl)-pyridin-4-yl]methylidene}-cyclopropanamine], for which the IC50 is 250 to 2500 nM on KDM5B (PLU-1) and greater than 2500 nM at KDM3B (JMJD1B).
With `CN(C)CC1CCC(CNCc2cc(/C=N/C3CC3)ccn2)CC1` (stereo not shown) [Compound 46, N-[(2-{[({4-[(dimethylamino)-methyl]cyclohexyl}-methyl)amino]-methyl}pyridin-4-yl)methylidene]-cyclopropanamine], the IC50 at KDM5B (PLU-1) is 250 to 2500 nM; on KDM3B (JMJD1B), greater than 2500 nM.
For `CN(C)CCCCCNCc1cc(/C=N/C2CC2)ccn1` [Compound 47, N-{[2-({[5-(dimethylamino)-pentyl]amino}-methyl)pyridin-4-yl]methylidene}-cyclopropanamine] the same measures were less than 250 nM and greater than 2500 nM.
As to `CCN(CC)CCCCNC(=O)CNCc1cc(/C=N/C2CC2)ccn1` [Compound 48, 2-[({4-[N-cyclopropyl-carboximidoyl]pyridin-2-yl}methyl)amino]-N-[4-(diethylamino)-butyl]acetamide], the IC50 was less than 250 nM at KDM5B (PLU-1) and greater than 2500 nM at KDM3B (JMJD1B).
`O=C(CNCc1cc(/C=N/C2CC2)ccn1)N1CCC[C@@H]1CN1CCCC1` [Compound 49, 2-[({4-[N-cyclopropyl-carboximidoyl]pyridin-2-yl}methyl)amino]-1-[(2R)-2-(pyrrolidin-1-ylmethyl)pyrrolidin-1-yl]ethan-1-one]: the figures for the IC50 at KDM5B (PLU-1) and on KDM3B (JMJD1B) were less than 250 nM and greater than 2500 nM, respectively.

What is called IC50 is the concentration that inhibits the measured activity by half.

(Values after patent US9650339B2, “Inhibitors of histone demethylases” (Gilead Sciences, Inc., priority 2013, dated 2017).)
